Source: BindingDB's records for doi:10.1021/jm00001a012 (Ciba-Geigy, 1995)

Target: 5-lipoxygenase (Cavia porcellus)
Experiment: In vitro 5-lipoxygenase inhibitory activity against A-23187-stimulated conversion of [14C]AA to LTB4 in guinea pig peritoneal polymorphonuclear leukocytes

- IC50: 97 nM
SMILES: NC(=O)N(O)C[C@H]1COc2ccc(Oc3ccc(F)cc3)cc2O1 [(2S)-2-[[N-(aminocarbonyl)-N-hydroxyamino]methyl]-7-(4-fluorophenoxy)-1,4-benzodioxan]
